Test results reported in patent US20220119354A1, “DIAMINO-SUBSTITUTED PYRIDINES AND PYRIMIDINES AS HERBICIDES” (FMC Corporation, priority 2019, published 2022).

Experiments:
Type in all cases: in vivo
kochia (Kochia scoparia) [1] = experiment: Test A postemergence, kochia; conditions: 0 to 100 scale
Source text: (§1) Seeds of plant species selected from barnyardgrass (Echinochloa crus-galli), kochia (Kochia scoparia), ragweed (common ragweed, Ambrosia elatior), ryegrass, Italian (Lolium multiflorum), foxtail, giant (Setaria faberii), foxtail, green (Setaria viridis), and pigweed (Amaranthus retroflexus) were planted into a blend of loam soil and sand and treated preemergence with a directed soil spray using test chemicals formulated in a non-phytotoxic solvent mixture which included a surfactant.
(§2) At the same time, plants selected from these weed species and also wheat (Triticum aestivum), corn (Zea mays), blackgrass (Alopecurus myosuroides), and galium (catchweed bedstraw, Galium aparine) were planted in pots containing the same blend of loam soil and sand and treated with postemergence applications of test chemicals formulated in the same manner. Plants ranged in height from 2 to 10 cm and were in the one- to two-leaf stage for the postemergence treatment. Treated plants and untreated controls were maintained in a greenhouse for approximately 10 d, after which time all treated plants were compared to untreated controls and visually evaluated for injury. Plant response ratings, summarized in Table A, are based on a 0 to 100 scale where 0 is no effect and 100 is complete control. A dash (-) response means no test result.

[2] = tested on: ragweed (common ragweed, Ambrosia elatior); experiment: Test A preemergence, ragweed; conditions: 0 to 100 scale, 0 is no effect, 100 is complete control
Source text: as §1, §2

[3] = tested on: galium (catchweed bedstraw, Galium aparine); experiment: Test A postemergence, galium; conditions: 0 to 100 scale
Source text: as §1, §2

rice (Oryza sativa) = experiment: Test B flooded paddy test, rice; conditions: Flood, 250 g ai/ha, applied to paddy water, 2-leaf stage, visual evaluation after 13 to 15 d
Method: (§3) Plant species in the flooded paddy test selected from rice (Oryza sativa), sedge, umbrella (small-flower umbrella sedge, Cyperus difformis), ducksalad (Heteranthera limosa), and barnyardgrass (Echinochloa crus-galli) were grown to the 2-leaf stage for testing. At the time of treatment, test pots were flooded to 3 cm above the soil surface, treated by application of test compounds directly to the paddy water, and then maintained at that water depth for the duration of the test. Treated plants and controls were maintained in a greenhouse for 13 to 15 d, after which time all species were compared to controls and visually evaluated. Plant response ratings, summarized in Table B, are based on a scale of 0 to 100 where 0 is no effect and 100 is complete control. A dash (-) response means no test result.

[4] = tested on: pigweed (Amaranthus retroflexus); experiment: Test A postemergence, pigweed; conditions: 0 to 100 scale
Source text: as §1, §2

[5] = tested on: wheat (Triticum aestivum); experiment: Test A postemergence, wheat; conditions: 0 to 100 scale
Source text: as §1, §2

[6] = tested on: barnyardgrass (Echinochloa crus-galli); experiment: Test A preemergence, barnyardgrass; conditions: 0 to 100 scale, 0 is no effect, 100 is complete control
Source text: as §1, §2

[7] = tested on: ryegrass, Italian (Lolium multiflorum); experiment: Test A preemergence, Italian ryegrass; conditions: 0 to 100 scale, 0 is no effect, 100 is complete control
Source text: as §1, §2

[8] = tested on: ryegrass, Italian (Lolium multiflorum); experiment: Test A postemergence, Italian ryegrass; conditions: 0 to 100 scale
Source text: as §1, §2

[9] = tested on: barnyardgrass (Echinochloa crus-galli); experiment: Test A postemergence, barnyardgrass; conditions: 0 to 100 scale
Source text: as §1, §2

[10] = tested on: ducksalad (Heteranthera limosa); experiment: Test B flooded paddy test, ducksalad; conditions: Flood, 250 g ai/ha, applied to paddy water, 2-leaf stage, visual evaluation after 13 to 15 d
Method: as §3

[11] = tested on: sedge, umbrella (small-flower umbrella sedge, Cyperus difformis); experiment: Test B flooded paddy test, umbrella sedge; conditions: Flood, 250 g ai/ha, applied to paddy water, 2-leaf stage, visual evaluation after 13 to 15 d
Method: as §3

[12] = tested on: blackgrass (Alopecurus myosuroides); experiment: Test A postemergence, blackgrass; conditions: 0 to 100 scale
Source text: as §1, §2

[13] = tested on: barnyardgrass (Echinochloa crus-galli); experiment: Test B flooded paddy test, barnyardgrass; conditions: Flood, 250 g ai/ha, applied to paddy water, 2-leaf stage, visual evaluation after 13 to 15 d
Method: as §3

[14] = tested on: pigweed (Amaranthus retroflexus); experiment: Test A preemergence, pigweed; conditions: 0 to 100 scale, 0 is no effect, 100 is complete control
Source text: as §1, §2

[15] = tested on: foxtail, giant (Setaria faberii); experiment: Test A postemergence, giant foxtail; conditions: 0 to 100 scale
Source text: as §1, §2

[16] = tested on: foxtail, giant (Setaria faberii); experiment: Test A preemergence, giant foxtail; conditions: 0 to 100 scale, 0 is no effect, 100 is complete control
Source text: as §1, §2

kochia (Kochia scoparia) [17] = experiment: Test A preemergence, kochia; conditions: 0 to 100 scale, 0 is no effect, 100 is complete control
Source text: as §1, §2

[18] = tested on: ragweed (common ragweed, Ambrosia elatior); experiment: Test A postemergence, ragweed; conditions: 0 to 100 scale
Source text: as §1, §2

corn (Zea mays) = experiment: Test A postemergence, corn; conditions: 0 to 100 scale, 0 no effect, 100 complete control
Source text: as §1, §2

[19] = 500 g ai/ha, 0 is no effect, 100 is complete control
[20] = 31 g ai/ha, 0 no effect, 100 complete control
[21] = 125 g ai/ha, 0 no effect, 100 complete control
[22] = 500 g ai/ha, 0 no effect, 100 complete control

C[C@@H](Nc1ncc(C(F)(F)F)c(N)n1)c1coc2ccccc12 [Compound 52, N2-[(1R)-1-(3-benzofuranyl)ethyl]-5-(trifluoromethyl)-2,4-pyrimidinediamine]
30%: pest or weed control at 125 g/ha ([9]; Echinochloa crus-galli, post-emergence, 240 h, 125 g ai/ha, 0 no effect, 100 complete control, read-out: Plant response rating, Barnyardgrass)
40%: pest or weed control at 125 g/ha ([15]; Setaria faberi, post-emergence, 240 h, 125 g ai/ha, 0 no effect, 100 complete control, read-out: Plant response rating, Foxtail, Giant)
30: Wheat plant response rating [5, 19]
95%: pest or weed control at 250 g/ha ([11]; Cyperus difformis, 360 h, read-out: Plant response rating, Sedge, Umbrella (0 to 100 scale, 0 is no effect, 100 is complete control))
90%: pest or weed control at 125 g/ha (kochia (Kochia scoparia) [1]; Bassia scoparia, post-emergence, 240 h, 125 g ai/ha, 0 no effect, 100 complete control, read-out: Plant response rating, Kochia) | pest or weed control at 250 g/ha ([13]; Echinochloa crus-galli, 360 h, read-out: Plant response rating, Barnyardgrass (0 to 100 scale, 0 is no effect, 100 is complete control))
0%: plant injury at 125 g/ha ([5]; Triticum aestivum, post-emergence, 240 h, 125 g ai/ha, 0 no effect, 100 complete control, read-out: Plant response rating, Wheat)
70: Barnyardgrass plant response rating ([6]; 125 g ai/ha)
100: Ragweed plant response rating ([2]; 125 g ai/ha) | Ragweed plant response rating ([2]; 500 g ai/ha) | Pigweed plant response rating [4, 19] | Barnyardgrass plant response rating ([6]; 500 g ai/ha) | Ryegrass, Italian plant response rating [8, 19] | Pigweed plant response rating ([14]; 125 g ai/ha) | Pigweed plant response rating ([14]; 500 g ai/ha) | Foxtail, Giant plant response rating ([16]; 500 g ai/ha) | Kochia plant response rating (kochia (Kochia scoparia) [17]; 500 g ai/ha) | Ragweed plant response rating [18, 19]
100%: pest or weed control at 125 g/ha ([4]; Amaranthus retroflexus, post-emergence, 240 h, 125 g ai/ha, 0 no effect, 100 complete control, read-out: Plant response rating, Pigweed) | pest or weed control at 250 g/ha ([10]; Heteranthera limosa, 360 h, read-out: Plant response rating, Ducksalad (0 to 100 scale, 0 is no effect, 100 is complete control))
60%: pest or weed control at 125 g/ha ([8]; Lolium multiflorum, post-emergence, 240 h, 125 g ai/ha, 0 no effect, 100 complete control, read-out: Plant response rating, Ryegrass, Italian)
50%: pest or weed control at 125 g/ha ([12]; Alopecurus myosuroides, post-emergence, 240 h, 125 g ai/ha, 0 no effect, 100 complete control, read-out: Plant response rating, Blackgrass)
80%: pest or weed control at 125 g/ha ([3]; Galium, post-emergence, 240 h, 125 g ai/ha, 0 no effect, 100 complete control, read-out: Plant response rating, Galium) | pest or weed control at 125 g/ha ([18]; Ambrosia artemisiifolia, post-emergence, 240 h, 125 g ai/ha, 0 no effect, 100 complete control, read-out: Plant response rating, Ragweed)
80: Ryegrass, Italian plant response rating ([7]; 125 g ai/ha)
90: Kochia plant response rating (kochia (Kochia scoparia) [1]; [19]) | Galium plant response rating [3, 19] | Ryegrass, Italian plant response rating ([7]; 500 g ai/ha) | Barnyardgrass plant response rating [9, 19] | Blackgrass plant response rating [12, 19] | Foxtail, Giant plant response rating [15, 19] | Foxtail, Giant plant response rating ([16]; 125 g ai/ha) | Kochia plant response rating (kochia (Kochia scoparia) [17]; 125 g ai/ha)
10%: plant injury at 250 g/ha (rice (Oryza sativa); Oryza sativa, 360 h, read-out: Plant response rating, Rice (0 to 100 scale, 0 is no effect, 100 is complete control))

C[C@@H](Nc1ncc(C(F)(F)F)c(N)n1)c1cc2ccccc2[s+]1[O-] (stereo partly drawn) [Compound 113]
30: Plant response rating, Kochia (kochia (Kochia scoparia) [1]; [20]) | Ryegrass, Italian plant response rating ([7]; 125 g ai/ha)
0: Ragweed plant response rating ([2]; 31 g ai/ha) | Plant response rating, Rice (0 to 100 scale, 0 is no effect, 100 is complete control) (rice (Oryza sativa)) | Plant response rating, Wheat [5, 20] | Plant response rating, Wheat [5, 21] | Barnyardgrass plant response rating ([6]; 31 g ai/ha) | Barnyardgrass plant response rating ([6]; 125 g ai/ha) | Ryegrass, Italian plant response rating ([7]; 31 g ai/ha) | Plant response rating, Corn (corn (Zea mays); 125 g ai/ha) | Plant response rating, Ryegrass, Italian [8, 20] | Plant response rating, Ryegrass, Italian [8, 21] | Plant response rating, Barnyardgrass [9, 20] | Plant response rating, Barnyardgrass [9, 21] | Plant response rating, Ducksalad (0 to 100 scale, 0 is no effect, 100 is complete control) [10] | Plant response rating, Sedge, Umbrella (0 to 100 scale, 0 is no effect, 100 is complete control) [11] | Plant response rating, Blackgrass [12, 20] | Plant response rating, Blackgrass [12, 21] | Plant response rating, Barnyardgrass (0 to 100 scale, 0 is no effect, 100 is complete control) [13] | Plant response rating, Foxtail, Giant [15, 20] | Plant response rating, Foxtail, Giant [15, 21] | Foxtail, Giant plant response rating ([16]; 31 g ai/ha) | Plant response rating, Ragweed [18, 20]
80: Kochia plant response rating (kochia (Kochia scoparia) [17]; 125 g ai/ha)
70: Plant response rating, Kochia (kochia (Kochia scoparia) [1]; [21]) | Plant response rating, Galium [3, 21]
10: Foxtail, Giant plant response rating ([16]; 125 g ai/ha)
100: Plant response rating, Pigweed [4, 21]
20: Ragweed plant response rating ([2]; 125 g ai/ha) | Plant response rating, Corn (corn (Zea mays); 31 g ai/ha) | Kochia plant response rating (kochia (Kochia scoparia) [17]; 31 g ai/ha)
40: Plant response rating, Galium [3, 20] | Plant response rating, Pigweed [4, 20] | Plant response rating, Ragweed [18, 21]

Cc1ccc2c([C@@H](Nc3ncc(C(F)(F)F)c(N)n3)C3CC3)coc2c1 [Compound 91]
30: Ryegrass, Italian plant response rating ([7]; 500 g ai/ha)
0: Plant response rating, Kochia (kochia (Kochia scoparia) [1]; [21]) | Plant response rating, Kochia (kochia (Kochia scoparia) [1]; [22]) | Ragweed plant response rating ([2]; 125 g ai/ha) | Ragweed plant response rating ([2]; 500 g ai/ha) | Plant response rating, Galium [3, 21] | Plant response rating, Galium [3, 22] | Plant response rating, Rice (0 to 100 scale, 0 is no effect, 100 is complete control) (rice (Oryza sativa)) | Plant response rating, Pigweed [4, 21] | Plant response rating, Pigweed [4, 22] | Plant response rating, Wheat [5, 21] | Plant response rating, Wheat [5, 22] | Barnyardgrass plant response rating ([6]; 125 g ai/ha) | Barnyardgrass plant response rating ([6]; 500 g ai/ha) | Ryegrass, Italian plant response rating ([7]; 125 g ai/ha) | Plant response rating, Corn (corn (Zea mays); 125 g ai/ha) | Plant response rating, Corn (corn (Zea mays); 500 g ai/ha) | Plant response rating, Ryegrass, Italian [8, 21] | Plant response rating, Ryegrass, Italian [8, 22] | Plant response rating, Ducksalad (0 to 100 scale, 0 is no effect, 100 is complete control) [10] | Plant response rating, Sedge, Umbrella (0 to 100 scale, 0 is no effect, 100 is complete control) [11] | Plant response rating, Blackgrass [12, 21] | Plant response rating, Blackgrass [12, 22] | Plant response rating, Barnyardgrass (0 to 100 scale, 0 is no effect, 100 is complete control) [13] | Pigweed plant response rating ([14]; 125 g ai/ha) | Pigweed plant response rating ([14]; 500 g ai/ha) | Plant response rating, Foxtail, Giant [15, 21] | Plant response rating, Foxtail, Giant [15, 22] | Foxtail, Giant plant response rating ([16]; 125 g ai/ha) | Foxtail, Giant plant response rating ([16]; 500 g ai/ha) | Kochia plant response rating (kochia (Kochia scoparia) [17]; 125 g ai/ha) | Kochia plant response rating (kochia (Kochia scoparia) [17]; 500 g ai/ha) | Plant response rating, Ragweed [18, 21] | Plant response rating, Ragweed [18, 22]
